# Data published in publication PMC10721329, “Quisinostat is a brain-penetrant radiosensitizer in glioblastoma” (JCI Insight, 2023).
# “And” between values parts separate entries of the source, which are not always exact repeats. Equal values may be shown once.
# Tests used:
# [1] = test system: primary human astrocytes (NHA); assay: Dose-response cell viability assay in normal astrocytes; type: cell-based; settings: for Cell viability (fraction of DMSO control): NHA, 3 days
# Protocol: (§1) GSCs were seeded in laminin-coated tissue culture–treated 96-well plates (clear bottom, white plate; Corning) at a density of 1000–5000 cells per well (cell line dependent) in GSC media. U87-MG were seeded using their normal growth conditions without laminin (10% bovine calf serum in DMEM). All cells were incubated at 37°C and allowed to adhere overnight. The next day, cells were treated with incremental concentrations of QST (Selleckchem; 0, 10, 25, 50, 100, 250, 500, and 1000 nM) diluted in media. Cells treated without QST were treated with DMSO diluted in media. Following treatment with QST, cells were grown for 3 to 5 days (cell line dependent), and cell viability was measured and quantified. All cell viability measurements were performed using the CellTiter-Glo luminescent cell viability assay (Promega) following the manufacturer’s instructions. For the sulforhodamine B colorimetric assay for cytotoxicity, the protocol was performed as described elsewhere ([33]). All cell viability results represent the mean of at least 3 biological replicates, each containing 3 technical replicates.
# (§2) Supplemental Figure 5. QST induces cell death in tumor tissue but not surrounding normal
# (§3) brain tissue in vivo. (A) Dose-response curves with QST (10–1000 nM) in primary human
# (§4) astrocytes. Cell viability 3 days after treatment with QST. […]
# [2] = as above; type: cell-based, human; settings: human, primary human astrocytes (NHA), NHA, 3 days, read-out: Cell viability (fraction of DMSO control)
# Protocol: as §1, §2, §3, §4
# [3] = Stability in mouse plasma at 37°C; type: in vitro ADME; settings: for [QST] mouse plasma at 37C, raw response / [QST], % of control: replicates; for [QST], % of control: mouse plasma
# Protocol: Hydroxamic acid–based compounds have been reported to display poor stability and high plasma clearance due to the presence of arylesterases and carboxylesterases in rodent blood ([34]). Therefore, we measured the stability of QST in mouse plasma and brain to determine whether drug degradation occurred during our sample preparations and equilibrium dialyses for the determination of unbound drug level (performed at 37°C). […] QST degradation was also observed in mouse brain homogenate (Figure 6B). However, perfusion of mice before brain collection prevented rapid drug degradation in the brain matrix. […] Degradation of QST can also be constrained if plasma and brain samples are processed at 4°C (Supplemental Figure 4A). All subsequent sample preparations were therefore performed on ice-cold baths to avoid degradation of QST in our PK analyses. […] The observed stability is probably due to the absence of esterases in human matrices, which are responsible for degradation of QST ([34]). Because we employed QST in several in vitro studies (Figures 1–4), the stability of the molecule was also tested in the cell media used to culture GSCs (neurobasal medium; see Methods).
# Stability Study in Mouse Plasma, Mouse Brain, Human Plasma, Human Brain, and Neural […]
# The stability of QST was determined in BALB/c mouse plasma, male nude athymic perfused and nonperfused mouse brain homogenate (1:9 w/v of PBS; pH 7.4), human brain (obtained from VRL Eurofins) homogenate (1:4 w/v of PBS; pH 7.4), pooled human plasma (Innovative Research), and neurobasal media. QST stock solutions (1 mM) were prepared in acetonitrile, subsequently diluted in a 40% methanol mixture, and added t o the matrices to make […]
# […] Then 50 or 30 µL of either plasma or brain homogenate containing QST were aliquoted into 1.5-mL microcentrifuge tubes (Eppendorf) and were incubated at either 4 °C or 37 °C for 0, 2, 4, 6, 12, or 24 hours (n = 3 at each time point).
# The stability of QST in mouse plasma was also tested at 0, 2, 8, 16, or 24 hours (n = 3 at each time point) in the presence of esterase inhibitors: 0.25 mM BNPP, 1mM dithiobis(2-nitrobenzoic acid) (DTNB), or 1.25 mM phenylmethylsulfonyl fluoride (PMSF). Plasma and brain homogenate samples were stored at −80 °C until LC-MS/MS analysis. […]
# BT145 cells = assay: Ki67 / cleaved caspase-3 immunofluorescence; type: cell-based, human; settings: QST at IC50, 72 hours, replicates
# Protocol: (§5) Cells were grown as adherent cultures on laminin -coated glass coverslips (Thermo Fisher Scientific) in GSC media. Twenty-four hours after plating, the cells were treated with QST or DMSO diluted in GSC media. Seventy-two hours after treatment, cells were fixed with 4% paraformaldehyde for 13 minutes at room temperature. Cells were washed with phosphate-buffered saline (PBS) and subsequently permeabilized and blocked with 5% normal goat serum (Sigma Aldrich) and 0.2% Triton X -100 in PBS (blocking solution) for 30 minutes at room temperature. The cells were incubated with primary antibodies overnight a t 4 °C in blocking solution. Primary antibodies used in this study included rabbit anti -Ki67 (1:1000; Abcam, 15580), rabbit anti-Cleaved Caspase 3 (1:400; Cell Signaling Technologies, 9661), rabbit anti - gamma H2AX (phospho Ser139; 1:1000, Abcam, ab11174), and mouse anti-human Nestin (1:500; Novus Biologicals, 10C2). The following day, the cells were washed with PBS 3 times, incubated with fluorophore-conjugated secondary antibodies at 1: 1000 dilutions (Alexa Fluor […]
# (§6) for 1 hour at room temperature, and washed in PBS 3 more times. Cells were mounted onto […]
# (§7) SuperFrost Plus microscope slides using Fluoroshield Mounting Medium containing DAPI (Abcam). Images were acquired using a confocal microscope (Leica Microsystems; TCS SP5) operated with Leica Application Suite software. The fraction of Ki67- and Cleaved Caspase 3– positive cells were counted from 5 independent images from each condition. The mean and standard deviation were calculated from 3 biological replicates for all control and QST-treated […]
# (§8) Analysis of immunostaining of cultured GSCs was performed on confocal stacks (with a step size of 0.5–1.5 μm) acquired with either a 20× water-immersion objective or a 63× oil-immersion objective on a laser-scanning confocal microscope (Leica Microsystems; TCS SP5) operated with Leica Application Suite software. All images were processed using ImageJ software (National Institutes of Health). […]
# (§9) mL of ice cold 70% ethanol, added dropwise while vortexing. Cells were fixed on ice for 30 minutes and washed twice with 1× PBS. Cells were then resuspended in 500 μL of propidium iodide/RNAse staining buffer (BD Biosciences, 550825) for 15 minutes at room temperature before analysis. Data from all the samples were obtained using a Fortessa flow cytometer (BD […]
# GB126 cells = assay: Ki67 / cleaved caspase-3 immunofluorescence; type: cell-based, human; settings: QST at IC50, 72 hours, replicates
# Protocol: as §5, §6, §7, §8, §9
smiles,measurement,setting,value
"Cn1cc(CNCC2CCN(c3ncc(C(=O)NO)cn3)CC2)c2ccccc21 [QST, quisinostat]",Cell viability (fraction of DMSO control),[1]; QST 10 nM (log[nM] 1),0.6995 and 0.7125
same,Cell viability (fraction of DMSO control),[1]; QST 25 nM (log[nM] 1.39794),0.5597 and 0.5623
same,Cell viability (fraction of DMSO control),[1]; QST 50 nM (log[nM] 1.69897),0.4582 and 0.5002
same,Cell viability (fraction of DMSO control),[1]; QST 100 nM (log[nM] 2),0.3562 and 0.4332
same,sensitivity of primary human astrocytes to QST compared with GSCs,[1]; in vitro dose response assay,equally sensitive
same,"viability at 3 days, 10 nM",[2]; QST 10 nM (log[nM] 1),60.9%
same,"viability at 3 days, 25 nM",[2]; QST 25 nM (log[nM] 1.39794),46.7%
same,"viability at 3 days, 50 nM",[2]; QST 50 nM (log[nM] 1.69897),36.5%
same,"viability at 3 days, 100 nM",[2]; QST 100 nM (log[nM] 2),27.2%
same,"[QST] mouse plasma at 37C, raw response, Average","[3]; 500 nM, Time 0",1.911
same,"[QST] mouse plasma at 37C, raw response","[3]; 500 nM, Time 0",1.823 and 1.9096 and 2.002
same,"[QST] mouse plasma at 37C, raw response, Average","[3]; 500 nM, Time 1",0.7582
same,"[QST] mouse plasma at 37C, raw response","[3]; 500 nM, Time 1",0.7296 and 0.7817 and 0.7634
same,"[QST] mouse plasma at 37C, raw response, Average","[3]; 500 nM, Time 2",0.2892
same,"[QST] mouse plasma at 37C, raw response","[3]; 500 nM, Time 2",0.2668 and 0.314 and 0.2868
same,"[QST] mouse plasma at 37C, raw response, Average","[3]; 500 nM, Time 4",0.02578
same,"[QST] mouse plasma at 37C, raw response, Average","[3]; 500 nM, Time 8",0.00189
same,"[QST] mouse plasma at 37C, raw response","[3]; 500 nM, Time 8",0.00167 and 0.04867 and 0.00211
same,half-life,"[3]; BALB/c, mouse, plasma, 37°C, 8-hour incubation",~60 min
same,"[QST] mouse plasma at 37C, raw response",[3]; Time 4,0.02689 and 0.02585 and 0.0246
same,"[QST], % of control","[3]; 10 nM, Time 6 hrs",2.9% and 3.1% (2×)
same,"[QST], % of control","[3]; 10 nM, Time 12 hrs",2.6% and 2% and 2.1%
same,"[QST], % of control","[3]; 100 nM, Time 6 hrs",1.4% (2×) and 1.3%
same,"[QST], % of control","[3]; 100 nM, Time 12 hrs",0.1% (2×) and 2.5%
same,% CC-3 + / DAPI,BT145 cells,11.8845% and 6.461% and 13.5339%
same,% Ki67+ / DAPI,BT145 cells,26.1653% and 29.1973% and 26.725%
same,% CC-3 + / DAPI,GB126 cells,18.5009% and 22.4947% and 8.724%
same,% Ki67+ / DAPI,GB126 cells,8.013% and 11.9177% and 10.7184%
